These results are taken from ChEMBL document CHEMBL1201862, “PubChem BioAssay data set” (2004).

Structures are written as SMILES.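 The compound was tested at five concentrations on cells cultured in 96-well plates, with a 48-hour exposure period. GI50 marks 50% less growth.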 Activity calls are given as the source filed them. Rule as the data show it: active = GI50 up to about 1.1 µM and inactive = higher.

Among the test systems are COLO 205; UACC-62; A549; TK-10; NCI-H23; OVCAR-8; 786-0; DU-145; UACC-257; OVCAR-3; SW-620; Hs-578T; HOP-62; SN12C; A498; MOLT-4; MDA-MB-435; OVCAR-4; CCRF-CEM; RXF 393.
What all share (experiment): NCI anticancer screen, dose series, 48 h

Regarding `CC1(C)O[C@@H](CBr)C[C@H](C[C@H]2C[C@@H](O)C[C@@H](CCOCc3ccccc3)O2)O1`, the GI50 in the test with COLO 205 is 17 µM (inactive); in the test with UACC-62, 18.4 µM (inactive); in the test on A549, 23.9 µM (inactive); in the test on TK-10 it was 20.4 µM (inactive); in the test with NCI-H23 it was 16.3 µM (inactive); in the test with OVCAR-8, 21.5 µM (inactive). Also, the GI50 is 19.4 µM (inactive) with 786-0; 25.4 µM (inactive) with DU-145; 19 µM (inactive) in the test on UACC-257; 19.4 µM (inactive) in the test on OVCAR-3; 31.6 µM (inactive) in the test on SW-620; 25.6 µM (inactive) with Hs-578T. Moreover, the GI50 in the test with HOP-62 is 20.1 µM (inactive); with SN12C, 30.4 µM (inactive); in the test on A498, 23 µM (inactive); in the test with MOLT-4, 47.1 µM (inactive); with MDA-MB-435, 23.5 µM (inactive); in the test on OVCAR-4, 21.6 µM (inactive). In addition, the GI50 in the test on CCRF-CEM was 47.3 µM (inactive).

`Clc1ccc(C(Cc2cccc(Cl)c2)c2c(Cl)nc(N3CCNCC3)nc2Cl)cc1` (stereo not given): the GI50 in the test on COLO 205 is 2.9 µM (inactive); with UACC-62 it was 19.5 µM (inactive); in the test with A549, 16 µM (inactive); in the test on TK-10, 16.4 µM (inactive); with NCI-H23, 19 µM (inactive); in the test with OVCAR-8, 19.1 µM (inactive). Besides, the GI50 was 14.4 µM (inactive) in the test on 786-0; 19.7 µM (inactive) in the test on DU-145; 18.8 µM (inactive) in the test with UACC-257; 15.8 µM (inactive) with OVCAR-3; 16.5 µM (inactive) with SW-620; 19.8 µM (inactive) in the test on Hs-578T. Also, the GI50 with HOP-62 was 15.4 µM (inactive); in the test on A498, 15.2 µM (inactive); with MOLT-4 it was 12.2 µM (inactive); with MDA-MB-435, 16.7 µM (inactive); with OVCAR-4, 16.5 µM (inactive); in the test on CCRF-CEM it was 15.3 µM (inactive).

With `O=C(O)Cn1ccc(=O)c2ccc([N+](=O)[O-])cc21`, the GI50 in the test with COLO 205, with UACC-62, in the test on A549, in the test with TK-10, in the test on NCI-H23 and with OVCAR-8 was > 100 µM (inactive) in each case. For the same compound, the GI50 in the test on 786-0, with DU-145, in the test with UACC-257, in the test on OVCAR-3, in the test on SW-620 and in the test on Hs-578T was > 100 µM (inactive) throughout. Also, the GI50 with HOP-62, in the test with SN12C, in the test with A498, in the test on MOLT-4, in the test on MDA-MB-435 and with CCRF-CEM was > 100 µM (inactive) throughout.

`Cc1nc(N)c(N2CCN(C#N)CC2)c(O)n1`: the GI50 in the test with COLO 205, in the test with A549, in the test on TK-10, with NCI-H23, with OVCAR-8 and in the test on 786-0 was > 100 µM (inactive) in each case. In addition, the GI50 is > 100 µM (inactive) in the test with DU-145; > 100 µM (inactive) in the test with UACC-257; 28.8 µM (inactive) in the test with OVCAR-3; > 100 µM (inactive) in the test with SW-620; > 100 µM (inactive) with Hs-578T; > 100 µM (inactive) in the test on HOP-62. The GI50 in the test with SN12C, in the test with A498, in the test on MOLT-4, in the test with MDA-MB-435 and in the test on CCRF-CEM was > 100 µM (inactive) throughout.

`CC(C)(C)C(=O)C(CC(=O)c1ccccc1)C(=O)C(C)(C)C`: the GI50 in the test on COLO 205, in the test with A549, in the test on TK-10, in the test on NCI-H23, with OVCAR-8 and with 786-0 was > 100 µM (inactive) in each case. For the same compound, the GI50 was > 100 µM (inactive) with DU-145; > 100 µM (inactive) with UACC-257; > 100 µM (inactive) with OVCAR-3; > 100 µM (inactive) with SW-620; 77.3 µM (inactive) in the test on Hs-578T; 99.1 µM (inactive) in the test on HOP-62. The GI50 in the test on SN12C, with A498, with MOLT-4, in the test with MDA-MB-435, in the test on OVCAR-4 and with CCRF-CEM was > 100 µM (inactive) throughout.

As for `Cc1nc(Nc2ccccc2Cl)sc1C(=O)CC(=O)C(=O)Nc1c(Cl)cccc1Cl`, the GI50 in the test with COLO 205 is 18.6 µM (inactive); with UACC-62, 45.6 µM (inactive); with A549 it was 24.9 µM (inactive); with TK-10, > 100 µM (inactive); in the test on RXF 393, 23.4 µM (inactive); with NCI-H23, 50.1 µM (inactive). The GI50 was 29.4 µM (inactive) in the test with OVCAR-8; 24.3 µM (inactive) in the test on 786-0; 27 µM (inactive) in the test on DU-145; 44.4 µM (inactive) in the test with UACC-257; 17.4 µM (inactive) in the test with OVCAR-3; 26.5 µM (inactive) with SW-620. Moreover, the GI50 in the test with Hs-578T was 25.2 µM (inactive); in the test with HOP-62, 22.8 µM (inactive); in the test with SN12C, 44 µM (inactive); with MOLT-4 it was 24 µM (inactive); in the test on MDA-MB-435, 22.9 µM (inactive); with OVCAR-4, 49.1 µM (inactive). In addition, the GI50 with CCRF-CEM was 28.4 µM (inactive).

Take `O=C(C/N=C(\CN(c1ccccc1)c1ccccc1)Oc1c(Cl)cc(Cl)cc1Cl)n1cnc2ccccc21`: the GI50 with COLO 205 is > 100 µM (inactive); with UACC-62, 32.3 µM (inactive); in the test on A549, > 100 µM (inactive); with TK-10, > 100 µM (inactive); in the test with RXF 393 it was < 0.01 µM (active); in the test on NCI-H23, > 100 µM (inactive). The GI50 was 35.3 µM (inactive) in the test on OVCAR-8; > 100 µM (inactive) in the test on 786-0; > 100 µM (inactive) in the test on DU-145; > 100 µM (inactive) in the test on UACC-257; 32.5 µM (inactive) with OVCAR-3; 81.7 µM (inactive) in the test with SW-620. The GI50 in the test with Hs-578T is > 100 µM (inactive); with HOP-62 it was > 100 µM (inactive); in the test with SN12C it was 56.2 µM (inactive); with MOLT-4, 18.1 µM (inactive); with MDA-MB-435, 76.6 µM (inactive); in the test with OVCAR-4, > 100 µM (inactive). For the same compound, the GI50 in the test on CCRF-CEM is 33.8 µM (inactive).

As for `COc1cc2nc(-c3cccs3)nc(Cl)c2cc1OC`, the GI50 in the test on COLO 205, in the test with UACC-62, in the test with A549, in the test with TK-10, with NCI-H23 and in the test on OVCAR-8 was > 100 µM (inactive) in each case. Further, the GI50 is > 100 µM (inactive) in the test with 786-0; > 100 µM (inactive) in the test on DU-145; 68.9 µM (inactive) with UACC-257; 93.3 µM (inactive) with OVCAR-3; > 100 µM (inactive) in the test with SW-620; > 100 µM (inactive) in the test on Hs-578T. For the same compound, the GI50 was > 100 µM (inactive) in the test with HOP-62; > 100 µM (inactive) in the test on SN12C; 19.8 µM (inactive) in the test with A498; > 100 µM (inactive) with MDA-MB-435; 52.5 µM (inactive) in the test on OVCAR-4.
